The supplement of paper PMC11208160

Assay: recombinant barcode read abundance after kanamycin selection (control-corrected) (log10(CPM+1)); higher = more efficient recombination; sequences stand for … in AGTGCAGAGAAAATCGGCCAGTTTTCTCTGCCTGCAGTCCGCATGCCGT…AGATTTATGCAGCGGACTGCCTTTCTCCCAAAGTGATAAACCGGACAGTATCATGGACCGGTTTTCCCGGTAATCCGTATTTGCAAGGTTGGTTTCACT; site = the 11-nt target
Summary of the method: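 In a pooled screen in E. coli, targets were paired with target-binding loops of the IS621 bridge RNA. Each oligo carried a promoter, a target, a barcode and the first 104 bridge RNA bases driven by J23119, and was Gibson-cloned into a vector holding the remaining 73 bp and a T7-inducible recombinase before co-electroporation with a donor plasmid. Duplicate platings went onto chloramphenicol/ampicillin LB agar as the control or onto chloramphenicol/ampicillin/kanamycin with 0.1 mM IPTG. Recombination efficiency is the averaged, control-corrected count per million of barcodes at recombinant junctions, given as log10(CPM+1).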
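Also: IS621 recombinase and bridge RNA in Escherichia coli cells.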

Sequence	recombinant barcode read abundance (log10)
TATGAGGCTTGGGTTCTAACCTGTTGCCT (site TATGCGGCTAG)	0.26
TATGAGGCTTGGGTTCTAACCTGTTGCCT (site TATGGGGCTAG)	0.0447
TATGAGGCTTGGGTTCTAACCTGTTGCCT (site TATGTGGCTAG)	0.162
TATGGAGCTTGGGTTCTAACCTGTTGCAG (site GTTGGAGCTCT)	1.14
TATGGAGCTTGGGTTCTAACCTGTTGCAG (site TATGGAGCTCT)	2.34
TATGTAGCTTGGGTTCTAACCTGTTGCCC (site TATGTAGCTAG)	0.226
TATGTAGCTTGGGTTCTAACCTGTTGCCC (site TATGTAGCTCG)	0.0813
TATGTAGCTTGGGTTCTAACCTGTTGCCC (site TATGTAGCTGG)	1.36
TATGTAGCTTGGGTTCTAACCTGTTGCCC (site TATGTAGCTTG)	0.239
TATTATACTTGGGTTCTAACCTGTTGCAT (site TATTATACTAA)	0.0319
TATTATACTTGGGTTCTAACCTGTTGCAT (site TATTATACTAC)	0.0379
TATTATACTTGGGTTCTAACCTGTTGCAT (site TATTATACTAG)	0.0602
TATTATACTTGGGTTCTAACCTGTTGCAT (site TATTATACTAT)	0.167
TATTATACTTGGGTTCTAACCTGTTGCGT (site TATTATACTAA)	0.116
TATTATACTTGGGTTCTAACCTGTTGCGT (site TATTATACTAC)	0.335
TATTATACTTGGGTTCTAACCTGTTGCGT (site TATTATACTAG)	0.0727
TATTATACTTGGGTTCTAACCTGTTGCGT (site TATTATACTAT)	0.16
TATTATACTTGGGTTCTAACCTGTTGCTT (site TATTATACTAA)	0.0915
TATTATACTTGGGTTCTAACCTGTTGCTT (site TATTATACTAC)	0.116
TATTATACTTGGGTTCTAACCTGTTGCTT (site TATTATACTAG)	0.245
TATTATACTTGGGTTCTAACCTGTTGCTT (site TATTATACTAT)	0.34
TATTCTACTTGGGTTCTAACCTGTTGCGC (site TATTCTACTAC)	0.0305

Sequence	recombinant barcode read abundance (log10)
TATTCTACTTGGGTTCTAACCTGTTGCGC (site TATTCTACTCC)	0.0687
TATTCTACTTGGGTTCTAACCTGTTGCGC (site TATTCTACTGC)	0.0329
TATTCTACTTGGGTTCTAACCTGTTGCGC (site TATTCTACTTC)	0.0215
TATTGATCTTGGGTTCTAACCTGTTGCCT (site TAATGATCTAG)	0.347
TATTGATCTTGGGTTCTAACCTGTTGCCT (site TACTGATCTAG)	0.162
TATTGATCTTGGGTTCTAACCTGTTGCCT (site TAGTGATCTAG)	0.0784
TATTGATCTTGGGTTCTAACCTGTTGCCT (site TATTGATCTAG)	0.235
TATTGCCCTTGGGTTCTAACCTGTTGCCT (site TAATGCCCTAG)	0.203
TATTGCCCTTGGGTTCTAACCTGTTGCCT (site TATTGCCCTAG)	0.117
TCAAACCCTTGGGTTCTAACCTGTTGCGG (site TCAAACCCTCC)	1.6
TCAAACCCTTGGGTTCTAACCTGTTGCGG (site TCCAACCCTCC)	0.292
TCAAACCCTTGGGTTCTAACCTGTTGCGG (site TCGAACCCTCC)	0.0489
TCAAACCCTTGGGTTCTAACCTGTTGCGG (site TCTAACCCTCC)	0.279
TCAAGACCTTGGGTTCTAACCTGTTGCCG (site TCAAGACCTAG)	0.179
TCAAGACCTTGGGTTCTAACCTGTTGCCG (site TCAAGACCTCG)	0.461
TCACAGGCTTGGGTTCTAACCTGTTGCCG (site TCACAGGCTCG)	0.361
TCACAGGCTTGGGTTCTAACCTGTTGCCG (site TCTCAGGCTCG)	0.377
TCACGGACTTGGGTTCTAACCTGTTGCCT (site TCACGGACTAG)	1.1
TCACGGACTTGGGTTCTAACCTGTTGCCT (site TCCCGGACTAG)	0.101
TCACGGACTTGGGTTCTAACCTGTTGCCT (site TCGCGGACTAG)	0.0352
TCACGGACTTGGGTTCTAACCTGTTGCCT (site TCTCGGACTAG)	0.101
TCACGTCCTTGGGTTCTAACCTGTTGCGT (site TCACGTCCTAA)	0.0145

Sequence	recombinant barcode read abundance (log10)
TCACGTCCTTGGGTTCTAACCTGTTGCGT (site TCACGTCCTAC)	1.3
TCACGTCCTTGGGTTCTAACCTGTTGCGT (site TCACGTCCTAG)	0.0596
TCACGTCCTTGGGTTCTAACCTGTTGCGT (site TCACGTCCTAT)	0.295
TCACGTCCTTGGGTTCTAACCTGTTGCTT (site TCACGTCCTAA)	0.137
TCACGTCCTTGGGTTCTAACCTGTTGCTT (site TCACGTCCTAC)	0.0167
TCACGTCCTTGGGTTCTAACCTGTTGCTT (site TCACGTCCTAG)	0.262
TCACGTCCTTGGGTTCTAACCTGTTGCTT (site TCACGTCCTAT)	0.145
TCAGAATCTTGGGTTCTAACCTGTTGCCT (site TCAGAATCTAG)	0.667
TCAGAATCTTGGGTTCTAACCTGTTGCCT (site TCAGCATCTAG)	0
TCAGAATCTTGGGTTCTAACCTGTTGCCT (site TCAGGATCTAG)	0.371
TCAGAATCTTGGGTTCTAACCTGTTGCCT (site TCAGTATCTAG)	0.0618
TCAGGGACTTGGGTTCTAACCTGTTGCAG (site TCAGGGACTCT)	2.45
TCAGGGACTTGGGTTCTAACCTGTTGCAG (site TCGGGGACTCG)	0.375
TCAGGTACTTGGGTTCTAACCTGTTGCCT (site ACAGGTACTAG)	0.0983
TCAGGTACTTGGGTTCTAACCTGTTGCCT (site CCAGGTACTAG)	0.0713
TCAGGTACTTGGGTTCTAACCTGTTGCCT (site GCAGGTACTAG)	0.0652
TCAGGTACTTGGGTTCTAACCTGTTGCCT (site TCAGGTACTAG)	0.163
TCAGTATCTTGGGTTCTAACCTGTTGCCT (site TCAGAATCTAG)	0.145
TCAGTATCTTGGGTTCTAACCTGTTGCCT (site TCAGCATCTAG)	0.533
TCAGTATCTTGGGTTCTAACCTGTTGCCT (site TCAGGATCTAG)	0.107
TCAGTATCTTGGGTTCTAACCTGTTGCCT (site TCAGTATCTAG)	1.4
TCATCTCCTTGGGTTCTAACCTGTTGCCT (site ACATCTCCTAG)	0.188

Sequence	recombinant barcode read abundance (log10)
TCATCTCCTTGGGTTCTAACCTGTTGCCT (site CCATCTCCTAG)	0.0972
TCATCTCCTTGGGTTCTAACCTGTTGCCT (site GCATCTCCTAG)	0.0477
TCATCTCCTTGGGTTCTAACCTGTTGCCT (site TCATCTCCTAG)	0.092
TCATGGGCTTGGGTTCTAACCTGTTGCAG (site AGGGTTCCTAA)	0.457
TCATGGGCTTGGGTTCTAACCTGTTGCAG (site TCATGGGCTCT)	1.92
TCCAAAGCTTGGGTTCTAACCTGTTGCTA (site TCCAAAGCTTA)	0.249
TCCAAAGCTTGGGTTCTAACCTGTTGCTA (site TCCCAAGCTTA)	0.141
TCCAAAGCTTGGGTTCTAACCTGTTGCTA (site TCCGAAGCTTA)	0.294
TCCAAAGCTTGGGTTCTAACCTGTTGCTA (site TCCTAAGCTTA)	0.251
TCCAACACTTGGGTTCTAACCTGTTGCGG (site TCCAAACCTCC)	0.00935
TCCAACACTTGGGTTCTAACCTGTTGCGG (site TCCAACACTCC)	1.31
TCCAACCCTTGGGTTCTAACCTGTTGCGG (site TCAAACCCTCC)	0.0107
TCCAACCCTTGGGTTCTAACCTGTTGCGG (site TCCAACCCTCC)	1.78
TCCAACCCTTGGGTTCTAACCTGTTGCGG (site TCGAACCCTCC)	0.108
TCCAACCCTTGGGTTCTAACCTGTTGCGG (site TCTAACCCTCC)	0.3
TCCAAGACTTGGGTTCTAACCTGTTGCAG (site ACCAAGACTCG)	0.00865
TCCAAGACTTGGGTTCTAACCTGTTGCAG (site TCCAAGACTCT)	1.72
TCCAAGCCTTGGGTTCTAACCTGTTGCAG (site TCCAAACCTCT)	0.694
TCCAAGCCTTGGGTTCTAACCTGTTGCAG (site TCCAACCCTCT)	0.0251
TCCAAGCCTTGGGTTCTAACCTGTTGCAG (site TCCAAGCCTCT)	0.747
